Source: the supplement of paper PMC8671470

Columns and labels:
Conditions in all cases: 72 h
HL-60 [1] = assay: cell viability (% survival relative to DMSO control); higher = less cytotoxic
How it was run: (§1)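 HL-60 cells in RPMI 1640 with 10% FBS were rescreened against the full library on 384-well plates at five tenfold concentrations, 1–10,000 nM, in duplicate. Each screen was run with DMSO or 100 nM of one of three metabolic inhibitors, for 72 h at 37 °C, 5% CO2. Viability was read by CellTiter-Glo and normalised to DMSO and 10 μM proteasome-inhibitor wells. Where given, area under the curve came from four-parameter log-logistic fits (drc, PharmacoGx).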

HL-60 [2] = assay: area under dose-response curve (viability, 1 nM-10 uM) (fraction (0-1)); higher = more sensitive
How it was run: as §1

[3] = test system: myeloid leukemia patient primary cells Pat.2; assay: cell viability (% survival relative to DMSO control); higher = less cytotoxic
How it was run: (§2)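 Mononuclear cells from patients with AML or CML were thawed, purified on Ficoll and placed in RPMI 1640 with 10% FBS at 10,000 cells/well on 384-well plates. The plates came pre-printed with 70 compounds at five tenfold concentrations spanning 1–10,000 nM, in duplicate, and cells were exposed for 72 h. CellTiter-Glo gave viability, scaled between DMSO wells and wells with 10 μM proteasome inhibitor. Where reported, area under the curve was obtained from log-logistic fits with four parameters using the drc and PharmacoGx R packages.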

[4] = test system: myeloid leukemia patient primary cells Pat.8; assay: as above
How it was run: as §2

[5] = test system: myeloid leukemia patient primary cells Pat.5; assay: as above
How it was run: as §2

[6] = test system: myeloid leukemia patient primary cells Pat.1; assay: as above
How it was run: as §2

[7] = test system: myeloid leukemia patient primary cells Pat.13; assay: as above
How it was run: as §2

[8] = test system: myeloid leukemia patient primary cells Pat.7; assay: as above
How it was run: as §2

[9] = test system: myeloid leukemia patient primary cells Pat.10; assay: as above
How it was run: as §2

[10] = test system: myeloid leukemia patient primary cells Pat.11; assay: as above
How it was run: as §2

[11] = test system: myeloid leukemia patient primary cells Pat.3; assay: as above
How it was run: as §2

[12] = test system: myeloid leukemia patient primary cells Pat.14; assay: as above
How it was run: as §2

[13] = test system: myeloid leukemia patient primary cells Pat.15; assay: as above
How it was run: as §2

[14] = test system: myeloid leukemia patient primary cells Pat.4; assay: as above
How it was run: as §2

[15] = test system: myeloid leukemia patient primary cells Pat.12; assay: as above
How it was run: as §2

[16] = test system: myeloid leukemia patient primary cells Pat.9; assay: as above
How it was run: as §2

[17] = test system: myeloid leukemia patient primary cells Pat.6; assay: as above
How it was run: as §2

CN(CCCOc1ccc(Cc2ccccc2)cc1)CCC(=O)O
cell viability [%], HL-60 [1]
Conditions | 0.001 µM | 0.01 µM | 0.1 µM | 1 µM | 10 µM
co-treatment: AZD3965 100 nM | 98 | 101 | 112 | 99.6 | 99.54
co-treatment: DMSO vehicle | 106 | 100 | 104 | 100 | 98.6
co-treatment: GSK2194069 100 nM | 102.15 | 102 | 105.1 | 103 | 101
co-treatment: pictilisib 100 nM | 98.7 | 110 | 114 | 97.8 | 93.3

HL-60 [2]
Conditions | area under dose-response curve
co-treatment: AZD3965 100 nM | < 0.0301
co-treatment: DMSO vehicle | < 0.0301
co-treatment: GSK2194069 100 nM | < 0.0301
co-treatment: pictilisib 100 nM | < 0.0301

Cc1c2c(=O)n(-c3ccccc3Cl)[nH]c2cc(=O)n1Cc1ccccn1
cell viability [%]
Conditions | 1 nM | 10 nM | 100 nM | 1000 nM | 10000 nM
[3] | 86.2 | 92.7 | 88.6 | 94.6 | > 100
[4] | 79.7 | 92.3 | 86.6 | 96.9 | 75.9
[5] | 3.33 | 9.25 | 36.7 | 81.3 | 85.9
[6] | 53.7 | 89.9 | 91.5 | 96.7 | 85.5
[7] | 66.5 | 80 | 92.6 | 88.9 | 92.5
[8] | 13.2 | 82.9 | 63.7 | 91 | > 100
[9] | 27.2 | 64.5 | 42.2 | 86.1 | 42.3
[10] | 88 | 95.7 | 88.1 | 99.3 | 99.1
[11] | 25.8 | 94.3 | 92.2 | > 100 | > 100
[12] | 28.5 | 69.8 | 64.5 | 99.6 | > 100
[13] | 77.3 | 83.4 | 81.8 | 95.5 | 93
[14] | 63.6 | 90.8 | 81.5 | 98.5 | 72.8
[15] | 89.5 | 97.6 | 99.3 | 88.3 | 92.2
[16] | 1.24 | 62.4 | 54.9 | 100 | 100
[17] | 84.6 | 91.1 | 91.7 | > 100 | > 100

COc1ccc2c(NC(=O)Nc3cccc(C(F)(F)F)n3)ccnc2c1
cell viability [%], HL-60 [1]
Conditions | 0.001 µM | 0.01 µM | 0.1 µM | 1 µM | 10 µM
co-treatment: AZD3965 100 nM | 100 | 99.88 | 104.1 | 101.3 | 101
co-treatment: DMSO vehicle | 101.7 | 82.9 | 103 | 103 | 111
co-treatment: GSK2194069 100 nM | 95.4 | 95.5 | 99.2 | 95.9 | 92.5
co-treatment: pictilisib 100 nM | 104 | 73.9 | 98.4 | 86.5 | 121

HL-60 [2]
Conditions | area under dose-response curve
co-treatment: AZD3965 100 nM | < 0.0301
co-treatment: DMSO vehicle | < 0.0301
co-treatment: GSK2194069 100 nM | < 0.0301
co-treatment: pictilisib 100 nM | < 0.0301

Cc1nc(-c2ccccc2)sc1C(=O)Nc1ccc(S(N)(=O)=O)cc1
cell viability [%], HL-60 [1]
Conditions | 0.001 µM | 0.01 µM | 0.1 µM | 1 µM | 10 µM
co-treatment: AZD3965 100 nM | 101 | 109 | 96 | 94.8 | 99.97
co-treatment: DMSO vehicle | 103 | 109 | 100.3 | 97.5 | 98.6
co-treatment: GSK2194069 100 nM | 99.3 | 104 | 85.9 | 91.2 | 96.25
co-treatment: pictilisib 100 nM | 101 | 97.6 | 92 | 97.9 | 99.5

HL-60 [2]
Conditions | area under dose-response curve
co-treatment: AZD3965 100 nM | < 0.0301
co-treatment: DMSO vehicle | < 0.0301
co-treatment: GSK2194069 100 nM | < 0.0301
co-treatment: pictilisib 100 nM | < 0.0301

C=CC(=O)c1ccc(O)cc1 [4-Acryloylphenol]
cell viability [%], HL-60 [1]
Conditions | 0.001 µM | 0.01 µM | 0.1 µM | 1 µM | 10 µM
co-treatment: AZD3965 100 nM | 104 | 99.2 | 88.2 | 99.4 | 63.5
co-treatment: DMSO vehicle | 102 | 101.3 | 100 | 102 | 92.8
co-treatment: GSK2194069 100 nM | 104 | 110 | 96.21 | 105 | 87.5
co-treatment: pictilisib 100 nM | 108 | 103 | 104 | 108 | 58.5

HL-60 [2]
Conditions | area under dose-response curve
co-treatment: AZD3965 100 nM | < 0.0301
co-treatment: DMSO vehicle | < 0.0301
co-treatment: GSK2194069 100 nM | < 0.0301
co-treatment: pictilisib 100 nM | < 0.0301

O=c1cc(-c2ccccc2)oc2c1ccc1ccccc12 [Alpha-Naphtoflavone]
cell viability [%], HL-60 [1]
Conditions | 0.001 µM | 0.01 µM | 0.1 µM | 1 µM | 10 µM
co-treatment: AZD3965 100 nM | 103 | 99 | 102 | 100.7 | 101.2
co-treatment: DMSO vehicle | 102 | 99.7 | 97.6 | 98.3 | 101
co-treatment: GSK2194069 100 nM | 98.2 | 101 | 110 | 99.9 | 98.3
co-treatment: pictilisib 100 nM | 96.8 | 101.3 | 99.3 | 93 | 90

HL-60 [2]
Conditions | area under dose-response curve
co-treatment: AZD3965 100 nM | < 0.0301
co-treatment: DMSO vehicle | < 0.0301
co-treatment: GSK2194069 100 nM | < 0.0301
co-treatment: pictilisib 100 nM | < 0.0301
